Experimental data: US12780800B1, “Triazole-pyridinyl substituted azacyclohexyl acetic acid compounds as LPA receptor antagonists” (Viva Star Biosciences Limited, priority 2021, dated 2022)

Target: T1, LPA1 (Homo sapiens, UniProt Q92633)
T1 construct: ProLink (PK) beta-galactosidase enzyme-fragment tag; host or cells: CHO-K1
Test: LPA1 calcium flux assay (LPA1 functional antagonist assay)
Type: cell-based
Conditions: PathHunter CHO-K1 EDG2 β-Arrestin cell line; calcium indicator dye; stimulated with EC80 concentration of LPA; FLIPR Tetra
Method: Following overnight culture, cells were loaded with calcium indicator dye from the HitHunter Calcium No WashPLUS Assay kit (Eurofins DiscoverX Corporation, Cat #93-0091) for 45 minutes at 37° C. […] After compound addition, assay plates were equilibrated to room temperature for 30 minutes. […] IC50 values were determined by Chemical and Biological Information System from ChemInnovation Software, Inc. The compounds of this invention were tested for their activity to inhibit LPA1 as determined in an LPA1 functional antagonist assay as described herein.

T1 sequence (Q92633 whole entry, the tested form may be a part): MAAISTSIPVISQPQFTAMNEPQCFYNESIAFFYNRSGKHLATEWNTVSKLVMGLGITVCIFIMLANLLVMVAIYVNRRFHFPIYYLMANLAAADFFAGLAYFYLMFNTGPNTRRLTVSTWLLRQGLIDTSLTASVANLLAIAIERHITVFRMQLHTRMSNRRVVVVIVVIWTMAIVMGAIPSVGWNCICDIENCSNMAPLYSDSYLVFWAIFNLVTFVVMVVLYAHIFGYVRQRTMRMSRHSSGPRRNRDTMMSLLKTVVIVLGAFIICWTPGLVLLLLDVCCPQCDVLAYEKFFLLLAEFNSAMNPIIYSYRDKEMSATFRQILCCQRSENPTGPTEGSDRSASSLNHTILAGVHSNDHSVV

Row | SMILES | IC50 [nM]
1 | CCCc1ccc(=O)n(Cc2c(-c3ncc(CN4CC(C(=O)O)CC(F)(F)C4)c(CC)n3)cnn2C)c1 (single isomer, unassigned) [Example 161, (R) or (S)-1-((4-ethyl-2-(1-methyl-5-((2-oxo-5-propylpyridin-1(2H)-yl)methyl)-1H-pyrazol-4-yl)pyrimidin-5-yl)methyl)-5,5-difluoropiperidine-3-carboxylic acid] | 500 to 5000
2 | CCc1nc(-c2nnn(C)c2CNc2nccc(C3CCC3)n2)ccc1CN1CC(C(=O)O)CC(F)(F)C1 (single isomer, unassigned) [Example 162, (S) or (R)-1-((6-(5-(((4-cyclobutylpyrimidin-2-yl)amino)methyl)-1-methyl-1H-1,2,3-triazol-4-yl)-2-ethylpyridin-3-yl)methyl)-5,5-difluoropiperidine-3-carboxylic acid] | < 100
3 | CCc1nc(-c2nnn(C)c2CNc2nccc(C3CCC3)n2)ccc1CN1CC(C(=O)O)CC(F)(F)C1 (single isomer, unassigned) [Example 163, (R) or (S)-1-((6-(5-(((4-cyclobutylpyrimidin-2-yl)amino)methyl)-1-methyl-1H-1,2,3-triazol-4-yl)-2-ethylpyridin-3-yl)methyl)-5,5-difluoropiperidine-3-carboxylic acid] | 100 to 500
4 | CCCN(C)C(=O)OCc1c(-c2ccc(CN3CC(C(=O)O)CC(F)(F)C3)c(CC)n2)nnn1C (single isomer, unassigned) [Example 164, 1-((2-ethyl-6-(1-methyl-5-(((methyl(propyl)carbamoyl)oxy)methyl)-1H-1,2,3-triazol-4-yl)pyridin-3-yl)methyl)-5,5-difluoropiperidine-3-carboxylic acid] | > 5000
5 | CCCN(C)C(=O)OCc1c(-c2ccc(CN3CC(C(=O)O)CC(F)(F)C3)c(CC)n2)nnn1C (single isomer, unassigned) [Example 165, 1-((2-ethyl-6-(1-methyl-5-(((methyl(propyl)carbamoyl)oxy)methyl)-1H-1,2,3-triazol-4-yl)pyridin-3-yl)methyl)-5,5-difluoropiperidine-3-carboxylic acid] | 100 to 500
6 | Cc1nc(-c2nnn(C)c2Cn2ccc(CC3CC3)c(C)c2=O)ccc1N1CC(CC(=O)O)CC(F)(F)C1 (stereo in doubt) [Example 3, (S)-2-(1-(6-(5-((4-(cyclopropylmethyl)-3-methyl-2-oxopyridin-1(2H)-yl)methyl)-1-methyl-1H-1,2,3-triazol-4-yl)-2-methylpyridin-3-yl)-5,5-difluoropiperidin-3-yl)acetic acid] | 500 to 5000
7 | CCCc1cn(Cc2c(-c3ccc(N4C[C@@H](CC(=O)O)CC(F)(F)C4)c(C)n3)nnn2C)ccc1=O (stereo in doubt) [Example 43, (S)-2-(5,5-difluoro-1-(2-methyl-6-(1-methyl-5-((4-oxo-3-propylpyridin-1(4H)-yl)methyl)-1H-1,2,3-triazol-4-yl)pyridin-3-yl)piperidin-3-yl)acetic acid] | > 5000
8 | CCCc1ccc(=O)n(Cc2c(-c3cnc(N4C[C@H](CC(=O)O)CC(F)(F)C4)cn3)nnn2C)c1 (stereo in doubt) [Example 56, (R)-2-(5,5-difluoro-1-(5-(1-methyl-5-((2-oxo-5-propylpyridin-1(2H)-yl)methyl)-1H-1,2,3-triazol-4-yl)pyrazin-2-yl)piperidin-3-yl)acetic acid] | > 5000
9 | CCc1nc(-c2nnn(C)c2Cn2cc(CC(C)C)n(C)c2=O)ccc1N1C[C@H](CC(=O)O)CC(F)(F)C1 (stereo in doubt) [Example 66, 2-[(3R)-1-[2-ethyl-6-(1-methyl-5-{[3-methyl-4-(2-methylpropyl)-2-oxo-2,3-dihydro-1H-imidazol-1-yl]methyl}-1H-1,2,3-triazol-4-yl)pyridin-3-yl]-5,5-difluoropiperidin-3-yl]acetic acid] | < 100
10 | CCc1nc(-c2nnn(C)c2CN2C[C@H](CC3CC3)OC2=O)ccc1N1C[C@H](CC(=O)O)CC(F)(F)C1 (stereo in doubt) [Example 69, 2-((R)-1-(6-(5-(((S)-5-(cyclopropylmethyl)-2-oxooxazolidin-3-yl)methyl)-1-methyl-1H-1,2,3-triazol-4-yl)-2-ethylpyridin-3-yl)-5,5-difluoropiperidin-3-yl)acetic acid] | 500 to 5000
11 | Cc1nc(-c2nnn(C)c2CN2CCN(CC3CC3)C2=O)ccc1N1CC(CC(=O)O)CC(F)(F)C1 (stereo in doubt) [Example 70, (R)-2-(1-(6-(5-((3-(cyclopropylmethyl)-2-oxoimidazolidin-1-yl)methyl)-1-methyl-1H-1,2,3-triazol-4-yl)-2-methylpyridin-3-yl)-5,5-difluoropiperidin-3-yl)acetic acid] | > 5000
12 | CCc1nc(-c2nnn(C)c2CNc2nncc(C3CC3)n2)ccc1N1C[C@H](CC(=O)O)CC(F)(F)C1 (stereo in doubt) [Example 112, (R)-2-(1-(6-(5-(((5-cyclopropyl-1,2,4-triazin-3-yl)amino)methyl)-1-methyl-1H-1,2,3-triazol-4-yl)-2-ethylpyridin-3-yl)-5,5-difluoropiperidin-3-yl)acetic acid] | 500 to 5000
13 | CCc1nc(-c2nnn(C)c2COc2noc(C3CC3)n2)ccc1N1CC(CC(=O)O)CC(F)(F)C1 (stereo in doubt) [Example 114, (R)-2-(1-(6-(5-(((5-cyclopropyl-1,2,4-oxadiazol-3-yl)oxy)methyl)-1-methyl-1H-1,2,3-triazol-4-yl)-2-ethylpyridin-3-yl)-5,5-difluoropiperidin-3-yl)acetic acid] | > 5000
14 | CCc1nc(-c2nnn(C)c2CNc2noc(C3CC3)n2)ccc1N1CC(CC(=O)O)CC(F)(F)C1 (stereo in doubt) [Example 115, (R)-2-(1-(6-(5-(((5-cyclopropyl-1,2,4-oxadiazol-3-yl)amino)methyl)-1-methyl-1H-1,2,3-triazol-4-yl)-2-ethylpyridin-3-yl)-5,5-difluoropiperidin-3-yl)acetic acid] | > 5000
15 | CCCc1cc(C)c(=O)n(Cc2c(-c3ccc(N4C[C@@H](CC(=O)O)CC(F)(F)C4)c(C)n3)nnn2C)c1 [Example 1, (S)-2-(5,5-difluoro-1-(2-methyl-6-(1-methyl-5-((3-methyl-2-oxo-5-propylpyridin-1(2H)-yl)methyl)-1H-1,2,3-triazol-4-yl)pyridin-3-yl)piperidin-3-yl)acetic acid] | 500 to 5000
16 | Cc1nc(-c2nnn(C)c2Cn2ccc(CC3CC3)c(C)c2=O)ccc1N1C[C@@H](CC(=O)O)CC(F)(F)C1 [Example 2, (S)-2-(1-(6-(5-((4-(cyclopropylmethyl)-3-methyl-2-oxopyridin-1(2H)-yl)methyl)-1-methyl-1H-1,2,3-triazol-4-yl)-2-methylpyridin-3-yl)-5,5-difluoropiperidin-3-yl)acetic acid] | 500 to 5000
17 | CCCc1ccc(=O)n(Cc2c(-c3ccc(N4C[C@@H](CC(=O)O)CC(F)(F)C4)c(C)n3)nnn2C)c1 [Example 4, (S)-2-(5,5-difluoro-1-(2-methyl-6-(1-methyl-5-((2-oxo-5-propylpyridin-1(2H)-yl)methyl)-1H-1,2,3-triazol-4-yl)pyridin-3-yl)piperidin-3-yl)acetic acid] | 100 to 500
18 | CCCc1cccn(Cc2c(-c3ccc(N4C[C@@H](CC(=O)O)CC(F)(F)C4)c(C)n3)nnn2C)c1=O [Example 5, (S)-2-(5,5-difluoro-1-(2-methyl-6-(1-methyl-5-((2-oxo-3-propylpyridin-1(2H)-yl)methyl)-1H-1,2,3-triazol-4-yl)pyridin-3-yl)piperidin-3-yl)acetic acid] | > 5000
19 | CCCc1ccc(=O)n(Cc2c(-c3ccc(N4C[C@@H](CC(=O)O)CC(F)(F)C4)c(CC)n3)nnn2C)c1 [Example 6, (S)-2-(1-(2-ethyl-6-(1-methyl-5-((2-oxo-5-propylpyridin-1(2H)-yl)methyl)-1 H-1,2,3-triazol-4-yl)pyridin-3-yl)-5,5-difluoropiperidin-3-yl)acetic acid] | < 100
20 | CCCc1ccc(=O)n(Cc2c(-c3ccc(N4C[C@H](CC(=O)O)CC(F)(F)C4)c(CC)n3)nnn2C)c1 [Example 7, (R)-2-(1-(2-ethyl-6-(1-methyl-5-((2-oxo-5-propylpyridin-1(2H)-yl)methyl)-1H-1,2,3-triazol-4-yl)pyridin-3-yl)-5,5-difluoropiperidin-3-yl)acetic acid] | 500 to 5000
21 | CCCc1ccn(Cc2c(-c3ccc(N4C[C@@H](CC(=O)O)CC(F)(F)C4)c(CC)n3)nnn2C)c(=O)c1 [Example 8, (S)-2-(1-(2-ethyl-6-(1-methyl-5-((2-oxo-4-propylpyridin-1(2H)-yl)methyl)-1 H-1,2,3-triazol-4-yl)pyridin-3-yl)-5,5-difluoropiperidin-3-yl)acetic acid] | > 5000
22 | CCc1nc(-c2nnn(C)c2Cn2ccc(CC3CC3)cc2=O)ccc1N1C[C@@H](CC(=O)O)CC(F)(F)C1 [Example 9, (S)-2-(1-(6-(5-((4-(cyclopropyImethyl)-2-oxopyridin-1(2H)-yl)methyl)-1-methyl-1H-1,2,3-triazol-4-yl)-2-ethylpyridin-3-yl)-5,5-difluoropiperidin-3-yl)acetic acid] | > 5000
23 | CCc1nc(-c2nnn(C)c2Cn2ccc(CC3CC3)c(C)c2=O)ccc1N1C[C@@H](CC(=O)O)CC(F)(F)C1 [Example 10, (S)-2-(1-(6-(5-((4-(cyclopropylmethyl)-3-methyl-2-oxopyridin-1(2H)-yl)methyl)-1-methyl-1H-1,2,3-triazol-4-yl)-2-ethylpyridin-3-yl)-5,5-difluoropiperidin-3-yl)acetic acid] | 100 to 500
24 | CCc1nc(-c2nnn(C)c2Cn2ccc(CC3CC3)c(C)c2=O)ccc1N1C[C@H](CC(=O)O)CC(F)(F)C1 [Example 11, (R)-2-(1-(6-(5-((4-(cyclopropylmethyl)-3-methyl-2-oxopyridin-1(2H)-yl)methyl)-1-methyl-1H-1,2,3-triazol-4-yl)-2-ethylpyridin-3-yl)-5,5-difluoropiperidin-3-yl)acetic acid] | > 5000
